Several values for one entry are separate records, joined by “and”; a condition that tells them apart may be missing. Equal values may be shown once. Bounds are passed on as bounds.

Holding throughout (assay type): cell-based, human
The subject of one experiment is ARE. Description: ARE-luc reporter assay. As to conditions: IMR-32 cells. Here is the method: IMR-32 cells (33,000 cells/well) were transiently transfected with ARE-luc plasmid (100 ng/well) using FuGENE® HD (Roche Diagnostics) as a transfection reagent (1:3, w/v). The cells were dispensed into each well of a 96-well plate and incubated for 24 h. They were then treated with solvent control (DMSO or EtOH, 1%, v/v) or individual extracts/fractions/compounds for 24 h before ARE activities were detected by using BriteLite detection reagent (PerkinElmer). Relative fold activation for the treated samples over solvent control was reported. The ARE-luciferase (ARE-luc) reporter contains the ARE sequence of human NQO1: 5′-[…]-3′ [Moehlenkamp, J. D.; Johnson, J. A. Activation of antioxidant/electrophile-responsive elements in IMR-32 human neuroblastoma cells. Arch Biochem Biophys. 363:98-106; 1999].
In general terms: A reporter such as luciferase makes a cellular process visible.

Experiment [1] relates to NQO1. Kind of experiment: NQO1 protein expression by immunoblot in IMR-32 cells. As to conditions: 24 h. The procedure: (§1) IMR-32 cells (800,000 cells/well) were seeded into each well of 6-well plates. 24 h later, cells were treated with solvent control (EtOH, 0.5%, v/v) or fractions/compounds. After another 24 h, whole cell lysates were collected in PhosphoSafe buffer (Novagen) following the manufacturer's protocol and stored at −80° C. until analyzed. For each sample, the protein concentration was measured using a BCA assay kit (Pierce). Samples containing equal amount of total protein were separated by SDS-PAGE (NuPAGE® Novex® 4-12% Bis-Tris Mini gels, Invitrogen), transferred onto a PVDF membrane, and incubated overnight with the indicated primary antibodies at 4° C. on an orbital shaker. The membranes were then incubated with the corresponding secondary antibodies (HRP-linked) for 1 h at room temperature and detected with Supersignal Femto Western Blotting kit (Pierce). Anti-NQO1 (mouse) antibody was from Abcam; anti-β-actin (rabbit), anti-mouse-HRP, and anti-rabbit-HRP antibodies were from Cell Signaling Technology.
Background: Immunoblotting shows a protein as a band on a membrane.

For the next experiment, the system named is glutathione. Description: Glutathione assay in IMR-32 cells. Here is the method: Glutathione assays were performed following the manufacturer's protocol (Sigma). Briefly, IMR-32 cells (800,000 cells/well) were seeded into 6-well plates and incubated at 37° C. The cells were then treated with solvent control (EtOH, 0.5%, v/v) or compound 1 for the indicated period of time. At the end of each treatment, the cells were washed twice with Dulbecco's phosphate buffered saline (DPBS), harvested in 200 μl of DPBS, and pelleted at 600×g for 10 min at 4° C. After removal of DPBS, the cell pellet was deproteinized and re-suspended in 3 volumes of 5% sulfosalicylic acid solution (v/v). The suspension was frozen (liquid N2) and thawed (37° C. water bath) twice and then incubated at 4° C. for 5 min. The cell debris was spun down at 10,000×g for 10 min at 4° C. The supernatant was transferred to fresh tubes and used as glutathione stock. The concentration of the total glutathione (GSH+GSSG) was measured and compared with a standard curve of reduced glutathione (GSH).

Experiment [2] concerns NQO1. Description: Kinase inhibitor pre-treatment and NQO1 immunoblot. As to conditions: 10 μg/ml, 24 h, 30 min pre-treatment with PD98059 50 μM. The procedure:
as §1
For assays in the presence of an antioxidant, the cells were pretreated with excess NAC (1 mM, pH 7.50) for 2 h before they were treated with solvent control or the compounds (see above). […]

The test system of experiment [3] is NQO1. Description: RNA interference (NRF2 siRNA) and NQO1 immunoblot. As to conditions: IMR-32 cells, NRF2 siRNA 48 h, then 24 h treatment. The procedure: as §1
IMR-32 cells (600,000 cells/well) were seeded in 6-well plates and incubated at 37° C. for 24 h. […] The treated cells were then lysed in PhosphoSafe buffer and whole cell lysates analyzed by immunoblot (see above). […]

The test system of a further experiment is NRF2. Description: NRF2 mRNA levels by qPCR in IMR-32 cells. As to conditions: 1-10 μg/ml, 12 h. The procedure: (§2) Cultured cells were treated in the same way as described for the immunoblot experiments. After 12 h, total RNA was extracted using a commercial kit (RNeasy Mini Kit, Qiagen). For mice tissues, total RNA was extracted using TRIzol® reagent (Invitrogen) following the standard manufacturer's protocol.
(§3) cDNA synthesis and qPCR experiments for both cultured cells and mice tissues were performed following the same procedure. 2 μg of each RNA sample was reverse-transcribed into cDNA, which served as a template for TagMan® gene expression assays (Applied Biosystems). For each qPCR run, a total reaction volume of 25 μl was prepared consisting of 12.5 μl of TaqMan 2× universal master mix, 1.25 μl of a 20× TaqMan gene expression assay probe, 1 μl of cDNA and 10.25 μl of RNase-free sterile water. The reactions were dispensed into 96-well optical reaction plates (Applied Biosystems) and detected in an Applied Biosystems® 7300 Real-Time PCR System. The thermocycler program consisted of 2 min at 50° C., 10 min at 95° C., and 40 cycles of 95° C. for 15 s and 60° C. for 1 min. For normalization, GAPDH expression was used as an internal control for human cells (IMR-32) and β-actin for mice tissue samples.

In experiment [4] the test system is NQO1. Kind of experiment: NQO1 mRNA levels by qPCR in IMR-32 cells. The settings on record: 1 μg/ml, 12 h. The procedure: as §2, §3
For orientation: Real-time PCR tracks product formation cycle by cycle.

Setting [5] is: 10 μg/ml, 24 h, over solvent control.
Where [6] appears, read: 32 μg/ml, 24 h, over solvent control.

With `CCCCCCCCCC(=O)/C=C/CCCCCC(N)=O` [Compound 3, 7(E)-9-keto-octadec-7-enamide], the ARE activation came to 4.5 fold in the experiment with ARE (setting [5]) and 13.2 fold with ARE (setting [6]).
For `CCCCCCCC(=O)/C=C/CCCCCC(=O)O` [Compound 2, 7(E)-9-keto-hexadec-7-enoic acid] the same measures were 2.8 fold and 30.3 fold.
Take `CC(C)(C)c1cc(O)ccc1O` [tBHQ, reference compound]: the ARE activation in the experiment on ARE (positive control, concentration not given) came to 14.9 fold.
For `CCCCCCCCCC(=O)/C=C/CCCCCC(=O)O` [Compound 1, 7(E)-9-keto-octadec-7-enoic acid], the NQO1 protein expression entry in the experiment on NQO1 [1] is “detectable starting at 1 μg/ml and was the highest at 10 μg/ml”. In the experiment with glutathione (at 16 h), the “glutathione level restored relative to basal level” value is reported as “more than 50%”. Besides, the “transient decrease of glutathione level” value with glutathione (until 8 h) was < 30% and ~30%. Moreover, in the experiment on glutathione (up to 24 h), the “glutathione level versus baseline” value is reported as “stayed above baseline”. Besides, the “NQO1 expression in the presence of a MAPK (MEK1) inhibitor” value in the experiment with NQO1 [2] is recorded as “induced”. For the same compound, the “NQO1 expression in NRF2-depleted cells” value in the experiment on NQO1 [3] is “virtually undetectable”. Further, the ARE activation in the experiment with ARE (setting [5]) is reported as 17.6 fold. In the experiment on NRF2, the “NRF2 mRNA levels” value is reported as “remained unchanged”. Further, the “NQO1 mRNA level” value in the experiment on NQO1 [4] came out at 1.5 fold.

The values are drawn from patent US10010569B2, “Seaweed extracts, unsaturated fatty acids, and methods of treatment” (priority 2012, dated 2018).
